According to PubChem BioAssay AID651569 (Sanford-Burnham Center for Chemical Genomics, 2012):
The source made the active and inactive calls. How the calls were made is not given here.

These molecules were tested on luminescent cytotoxicity (cell viability) counter-screen (assay: cytotoxicity of Gli-SUFU antagonist hits, dose response, cytotoxicity control for Gli-SUFU antagonist project, cell-based, luminescence, uHTS hits (AID 651569);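 further: compound exposure lasted overnight before the viability readout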).
`Cc1sc2ncnc(NCc3cccs3)c2c1C` was tested, and the IC50 was > 20 µM (inactive).
In the case of `CC(C)(C)OC(=O)N1CCC(c2cc(-c3cccs3)n[nH]2)CC1`, the IC50 is reported as > 20 µM (inactive).
In the case of `O=C(Nc1ccccc1)C1=C[C@H](C2CCCCC2)C[C@H](OCCCCO)O1`, the IC50 is reported as > 20 µM (inactive).
In the case of `O=C(N[C@H]1C/C=C\C[C@@H](CC(=O)N(CCO)Cc2ccccc2)C(=O)N[C@H](Cc2c[nH]c3ccccc23)COC1=O)OCC1c2ccccc2-c2ccccc21`, the IC50 is reported as > 20 µM (inactive).
With `CC(C)=CCC/C(C)=C/CNC(=O)C[C@H]1C[C@H](C(=O)N2CCOCC2)[C@@]2(C)c3[nH]c4cc(CCC(=O)N(C)C)ccc4c3CCN2C1=O` the IC50 was > 20 µM (inactive).
For `COc1cc(C(=O)NC2CCN(C)CC2)ccc1Nc1ncc2c(n1)N(CCc1ccccc1)CCC(=O)N2C`, the IC50 was > 20 µM (inactive).
For `Cc1cc(=O)[nH]c(SCC(=O)/C=C2\N(C)c3ccccc3C2(C)C)n1`, the IC50 was > 20 µM (inactive).
For `Brc1ccc(-c2csc(N3CCCCCC3)n2)cc1`, the IC50 was > 20 µM (inactive).
With `O=C(c1cc2sccc2n1Cc1ccccc1)N1CCN(c2nc3ccccc3s2)CC1` the IC50 was > 20 µM (inactive).
In the case of `COc1ccc2c(c1)c(C)cc[n+]2Cc1ccccc1`, the IC50 is reported as > 20 µM (inactive).
In the case of `CCn1c(=NC(=O)CS(=O)(=O)c2ccccc2)sc2cccc(OC)c21`, the IC50 is reported as > 20 µM (inactive).
`Clc1ccc(-n2cc(-c3ccc(Br)cc3)[n+]3c2CCCCC3)cc1` was tested, and the IC50 was > 20 µM (inactive).
With `CCn1c(/C=C/Nc2ccccc2)[n+](CC)c2cc(Cl)c(Cl)cc21` the IC50 was 9.98 µM.
With `COc1ccc(C(=O)C[n+]2cc(-c3ccc(OC)cc3)n3c2CCCC3)cc1` the IC50 was > 20 µM (inactive).
In the case of `Cc1nc2ccccc2n1Cc1ccc(Br)cc1`, the IC50 is reported as > 20 µM (inactive).
With `C[n+]1c2n(c3ccccc31)N=C(c1ccc(-c3ccccc3)cc1)CS2` the IC50 was > 20 µM (inactive).
`CCOc1ccc(OCc2ccc(C(=O)NN=Cc3ccc[nH]3)cc2)cc1` was tested, and the IC50 was 19.3 µM.
Molecule `Cc1ccc(NC(=O)/C=C/c2ccco2)cc1S(=O)(=O)N1CCCCCC1` has an IC50 of 6.1 µM.
With `COc1ccc(CC(=O)Nc2cccc(S(=O)(=O)N3CCCCCC3)c2)cc1OC` the IC50 was > 20 µM (inactive).
In the case of `Cc1ccc(C)c(N2CC(O)(c3cccs3)[N+]3=C2CCCC3)c1` (configuration not stated), the IC50 is reported as > 20 µM (inactive).
In the case of `S=C(Nc1ccccc1)N1CCC(Cc2ccccc2)CC1`, the IC50 is reported as > 20 µM (inactive).
For `Nc1nc2ccccc2n1/N=C/c1ccc([N+](=O)[O-])s1`, the IC50 was > 20 µM (inactive).
For `CC(C)(C)C1CCC(OC(=O)C[N+]2(C)CCCCC2)CC1` (configuration not stated), the IC50 was > 20 µM (inactive).
For `CCN(CC)C(=O)c1ccc(S(=O)(=O)N2CCC(c3nc4ccccc4s3)CC2)cc1`, the IC50 was > 20 µM (inactive).
In the case of `Cc1sc2ncnc(NCC3COc4ccccc4O3)c2c1C` (configuration not stated), the IC50 is reported as > 20 µM (inactive).
In the case of `C=CCn1c(O)c(N=NC(=S)Nc2cccc(C)c2)c2ccccc21`, the IC50 is reported as > 20 µM (inactive).
`Clc1ccc(-c2c[n+](Cc3ccc(Cl)cc3Cl)c3n2CCCCC3)cc1` was tested, and the IC50 was 9.17 µM.
In the case of `Nc1ccc(Br)cc1-c1nc2ccccc2[nH]c1=O`, the IC50 is reported as > 20 µM (inactive).
For `Cc1nc2sccn2c1-c1csc(NCc2ccccc2)n1`, the IC50 was > 20 µM (inactive).
For `O=C(Cn1c(-c2ccccc2)c[n+]2ccsc12)c1ccc(Br)cc1`, the IC50 was > 20 µM (inactive).
In the case of `Cc1cccc(C)c1NC(=S)N(CCN1CCCCCC1)Cc1ccco1`, the IC50 is reported as > 20 µM (inactive).
`c1ccc(-c2cn(-c3ccccc3)c3[n+]2CCS3)cc1` was tested, and the IC50 was > 20 µM (inactive).
`N=c1c2c(n(Cc3ccc(F)cc3)c3c1CCC3)CCCC2` was tested, and the IC50 was > 20 µM (inactive).
For `CC1CCCCC1NS(=O)(=O)c1ccc(S(=O)(=O)NCc2ccncc2)cc1` (configuration not stated), the IC50 was > 20 µM (inactive).
`c1ccc(-c2c[n+]3c(n2-c2ccccc2)CCC3)cc1` was tested, and the IC50 was > 20 µM (inactive).
In the case of `CCOc1ccc(NS(=O)(=O)c2cccc(C(=O)N3CCN(C/C=C/c4ccccc4)CC3)c2)cc1`, the IC50 is reported as > 20 µM (inactive).
`COCCNc1nc2c(c(=O)n(C)c(=O)n2C)n1Cc1cccc(C(F)(F)F)c1` gave an IC50 of 12.4 µM.
For `Cc1cc(Nc2ccc([N+](=O)[O-])cc2)c2ccccc2n1`, the IC50 was > 20 µM (inactive).
With `CCOP(=O)(CCP(=O)(OCC)OCC)OCC.C[CH2][Sn]([Cl])([Cl])[CH2]C` the IC50 was 12.6 µM.
With `NC(=O)c1ccccc1OCC(=O)N1CCC(Cc2ccccc2)CC1` the IC50 was > 20 µM (inactive).
In the case of `O=C(C[C@@H]1C/C=C\C[C@H](NC(=O)OCC2c3ccccc3-c3ccccc32)C(=O)OC[C@H]2CCCN2C1=O)N[C@H](CO)Cc1ccccc1`, the IC50 is reported as > 20 µM (inactive).
For `CCCCc1ccc(NC(=O)C(=O)NCCN2CCN(Cc3ccc([N+](=O)[O-])cc3)CC2)cc1`, the IC50 was > 20 µM (inactive).
With `O=C(NCCc1cccc(Cl)c1)c1ccc(OC2CCN(Cc3ccccn3)CC2)cc1` the IC50 was > 20 µM (inactive).
For `Cc1ccc2c(c1)c(C)cc[n+]2Cc1ccccc1`, the IC50 was > 20 µM (inactive).
For `CC(=O)c1cn(Cc2ccccc2F)c2ccccc12`, the IC50 was > 20 µM (inactive).
With `COc1ccc(NS(=O)(=O)c2ccc(N3CCOCC3)c(N)c2)cc1` the IC50 was > 20 µM (inactive).
`CCCCN(C(C)=O)c1ccc2c(c1)C1CC2CCN1C(=O)OCc1ccccc1` (configuration not stated) showed an IC50 of 8.16 µM.
`CC1Sc2n(c3ccccc3[n+]2C)N=C1c1ccccc1` (configuration not stated) was tested, and the IC50 was > 20 µM (inactive).
For `CC(C)(C)OC(=O)NCCCCCc1cn(CC(=O)NCCCCCCCCCCC(=O)N2CCN(C(=O)OC(C)(C)C)CC2)nn1`, the IC50 was > 20 µM (inactive).
For `Cc1sc2ncnc(NCC(O)c3ccc([N+](=O)[O-])cc3)c2c1C` (configuration not stated), the IC50 was > 20 µM (inactive).
In the case of `C(#Cc1ccccc1)C[N+]1(CC#Cc2ccccc2)CCCC1`, the IC50 is reported as > 20 µM (inactive).
For `COCCOc1nc2c(c(=O)n(C)c(=O)n2C)n1Cc1cccc(OC)c1`, the IC50 was > 20 µM (inactive).
In the case of `Brc1ccc(-c2c[n+]3c(n2-c2ccccc2)SCC3)cc1`, the IC50 is reported as > 20 µM (inactive).
In the case of `CCN(CC)S(=O)(=O)c1ccc(S(=O)(=O)Nc2c(C)nn(C)c2C)cc1`, the IC50 is reported as > 20 µM (inactive).
With `Cc1ccc(S(=O)(=O)NCCC2=CCCCC2)cc1C(N)=O` the IC50 was > 20 µM (inactive).
In the case of `CCOc1ccc(-n2c(-c3ccc(Cl)cc3)c[n+]3c2SCC3)cc1`, the IC50 is reported as 19 µM.
`c1ccc(-c2c[n+]3c(n2-c2ccccc2)SCC3)cc1` was tested, and the IC50 was > 20 µM (inactive).
In the case of `COc1ccc(C2=[N+](C)CCn3cccc32)c(OC)c1`, the IC50 is reported as > 20 µM (inactive).
For `CCn1c(/C=C/Nc2ccccc2)[n+](CC)c2ccc(Cl)cc21`, the IC50 was > 20 µM (inactive).
`C=CCOc1nc2c(c(=O)n(C)c(=O)n2C)n1Cc1ccc(Cl)cc1Cl` was tested, and the IC50 was > 20 µM (inactive).
In the case of `CCOC(=O)N1CCN(C(=O)c2ccc(CSc3ccc(Cl)cc3)cc2)CC1`, the IC50 is reported as > 20 µM (inactive).
For `CC(C)CC(NC(=O)CCCNC(=O)CCC(=O)OC1O[C@H]2OC3(C)CC[C@H]4[C@H](C)CCC(C1C)C24OO3)C(=O)O` (some centres not stated), the IC50 was > 20 µM (inactive).
In the case of `COC(=O)c1cc(S(=O)(=O)N2CCC(c3cc(OC)ccc3OC)C2)c[nH]1` (configuration not stated), the IC50 is reported as > 20 µM (inactive).
For `COc1cc2c(c(OC)c1OC)-c1ccc(N(C)CC(OC)OC)c(=O)cc1[C@@H](NC(C)=O)CC2`, the IC50 was 10.6 µM.
In the case of `CC(=O)/C(=N\Nc1ccc(Cl)cc1Cl)Sc1cccc2cccnc12`, the IC50 is reported as > 20 µM (inactive).
`COc1ccc(-c2noc(CCCCC(=O)N3CCN(c4cc(C)ccc4C)CC3)n2)cc1` was tested, and the IC50 was > 20 µM (inactive).
In the case of `CCN1CCCC1CNc1ncnc2c1[nH]c1ccc(Cl)cc12` (configuration not stated), the IC50 is reported as > 20 µM (inactive).
In the case of `CCc1ccccc1NC(=S)N=Nc1c(O)n(C)c2ccc(S(=O)(=O)N3CCOCC3)cc12`, the IC50 is reported as > 20 µM (inactive).
For `CN(C)CCn1c2ccccc2c2nc3ccc([N+](=O)[O-])cc3cc21`, the IC50 was > 20 µM (inactive).
`COc1cc(C(=O)NC2CCN(C)CC2)ccc1Nc1ncc2c(n1)N(C1CCCCC1)CCC(=O)N2C` was tested, and the IC50 was 15.7 µM.
In the case of `O=C(c1cc2sccc2n1Cc1ccc(F)cc1)N1CCN(c2nc3ccccc3s2)CC1`, the IC50 is reported as > 20 µM (inactive).
With `CC(C)n1c(-c2ccco2)csc1=Nc1cccnc1` the IC50 was > 20 µM (inactive).
For `Cc1ccc(C2=C(CC(=O)O)C(=O)CC2)cc1`, the IC50 was > 20 µM (inactive).
`CCCCCn1c(=N)n(CC(O)COc2ccccc2OC)c2ccccc21` (configuration not stated) was tested, and the IC50 was > 20 µM (inactive).
In the case of `CCOc1ccc(S(=O)(=O)NCc2ccncc2)cc1NC(=O)c1ccccc1`, the IC50 is reported as > 20 µM (inactive).
In the case of `c1ccc(C[n+]2cccc(-c3ccccc3)c2)cc1`, the IC50 is reported as > 20 µM (inactive).
`CN(Cc1ccc(OC(F)F)cc1)C(=O)c1cccc(S(=O)(=O)N2CCN(Cc3ccccc3)CC2)c1` was tested, and the IC50 was > 20 µM (inactive).
For `CCOC(=O)c1c(NC(=O)COc2cccc3c2CCN(C)C3=O)sc2c1CCC2`, the IC50 was > 20 µM (inactive).
`O=C(C[C@H]1C/C=C\C[C@@H](NC(=O)OCC2c3ccccc3-c3ccccc32)C(=O)O[C@@H](c2ccccc2)CNC1=O)N[C@H](CO)Cc1ccccc1` was tested, and the IC50 was > 20 µM (inactive).
In the case of `CCC(C)[C@H]1CN=C(N)N1CCc1cccc2ccccc12` (some centres not stated), the IC50 is reported as > 20 µM (inactive).
With `C[C@@H]1COC(=O)[C@H](NC(=O)OCC2c3ccccc3-c3ccccc32)C/C=C\C[C@@H](CC(=O)N[C@@H](CO)Cc2ccccc2)C(=O)N1` the IC50 was > 20 µM (inactive).
For `Cc1ccc(NCC(=O)Nc2cccc(S(=O)(=O)N(C)C)c2)cc1S(=O)(=O)N1CCCCCC1`, the IC50 was > 20 µM (inactive).
